Data published in ChEMBL document CHEMBL1201862, “PubChem BioAssay data set” (2004).
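1) Cells in 96-well plates. 2) Compound, 48 h, 5 concentrations. 3) Linear interpolation between surrounding doses. 4) Unreached endpoint = highest concentration. Abbreviation: GI50, concentration required for 50% inhibition of growth.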 The source made the active and inactive calls. Cut-off read from the data, not from the text of the source: active = GI50 up to about 1.1 µM and inactive = higher.

Columns and labels:
Experiment in all cases: NCI-60 cell line screen, 48 h
UACC-62 = tested on: UACC-62
CCRF-CEM = tested on: CCRF-CEM
786-0 = tested on: 786-0
SF-539 = tested on: SF-539
HOP-62 = tested on: HOP-62
HCT-116 = tested on: HCT-116
RPMI-8226 = tested on: RPMI-8226
ACHN = tested on: ACHN
UACC-257 = tested on: UACC-257
A549 = tested on: A549
COLO 205 = tested on: COLO 205
EKVX = tested on: EKVX
OVCAR-5 = tested on: OVCAR-5
KM12 = tested on: KM12
T47D = tested on: T47D
SK-OV-3 = tested on: SK-OV-3
SNB-75 = tested on: SNB-75
MOLT-4 = tested on: MOLT-4
IGROV-1 = tested on: IGROV-1
SW-620 = tested on: SW-620
DU-145 = tested on: DU-145
HCT-15 = tested on: HCT-15
U-251 = tested on: U-251
SNB-19 = tested on: SNB-19
HCC 2998 = tested on: HCC 2998
OVCAR-4 = tested on: OVCAR-4
SF-295 = tested on: SF-295
HL-60 = tested on: HL-60
NCI-H23 = tested on: NCI-H23
BT-549 = tested on: BT-549
OVCAR-3 = tested on: OVCAR-3
Hs-578T = tested on: Hs-578T
NCI/ADR-RES = tested on: NCI/ADR-RES
A498 = tested on: A498
UO-31 = tested on: UO-31
LOX IMVI = tested on: LOX IMVI
SK-MEL-2 = tested on: SK-MEL-2
MDA-N = tested on: MDA-N
MDA-MB-435 = tested on: MDA-MB-435
SR = tested on: SR
SK-MEL-28 = tested on: SK-MEL-28
HT-29 = tested on: HT-29
OVCAR-8 = tested on: OVCAR-8
NCI-H460 = tested on: NCI-H460
CAKI-1 = tested on: CAKI-1
MCF7 = tested on: MCF7
M14 = tested on: M14
SN12C = tested on: SN12C
RXF 393 = tested on: RXF 393
NCI-H226 = tested on: NCI-H226
HOP-92 = tested on: HOP-92
TK-10 = tested on: TK-10
K562 = tested on: K562
SF-268 = tested on: SF-268
MDA-MB-231 = tested on: MDA-MB-231
PC-3 = tested on: PC-3
SK-MEL-5 = tested on: SK-MEL-5
Malme-3M = tested on: Malme-3M
NCI-H522 = tested on: NCI-H522

In the case of `N#Cc1c(NCCc2ccc(F)cc2)c2ccccc2n2c1nc1ccccc12`, the GI50 (UACC-62) is reported as 7.6 µM (inactive), the GI50 (CCRF-CEM) is reported as > 100 µM (inactive) and the GI50 (786-0) is reported as 4.46 µM (inactive). For the same compound, the GI50 (SF-539) was 9.27 µM (inactive), the GI50 (HOP-62) was 5.27 µM (inactive) and the GI50 (HCT-116) was 19 µM (inactive). For the same compound, the GI50 (RPMI-8226) was 46.8 µM (inactive), the GI50 (ACHN) was 9.18 µM (inactive) and the GI50 (UACC-257) was 40.4 µM (inactive). For the same compound, the GI50 (A549) was 33.7 µM (inactive), the GI50 (COLO 205) was 71.6 µM (inactive) and the GI50 (EKVX) was 10.2 µM (inactive). For the same compound, the GI50 (OVCAR-5) was 41.6 µM (inactive), the GI50 (KM12) was 23.2 µM (inactive) and the GI50 (T47D) was 22.4 µM (inactive). The GI50 (SK-OV-3) was 20.1 µM (inactive), the GI50 (SNB-75) was 6.32 µM (inactive) and the GI50 (MOLT-4) was > 100 µM (inactive). The GI50 (IGROV-1) was 13.4 µM (inactive), the GI50 (SW-620) was 75 µM (inactive) and the GI50 (DU-145) was 19.6 µM (inactive). For the same compound, the GI50 (HCT-15) was 28.4 µM, the GI50 (U-251) was 11.3 µM (inactive) and the GI50 (SNB-19) was 14 µM (inactive). The GI50 (HCC 2998) was 40.3 µM (inactive), the GI50 (OVCAR-4) was 2.45 µM (inactive) and the GI50 (SF-295) was 10.7 µM (inactive). The GI50 (HL-60) was > 100 µM (inactive), the GI50 (NCI-H23) was 13.1 µM (inactive) and the GI50 (BT-549) was 21.2 µM (inactive). For the same compound, the GI50 (OVCAR-3) was 13.9 µM (inactive), the GI50 (Hs-578T) was 4.33 µM (inactive) and the GI50 (NCI/ADR-RES) was 12.3 µM (inactive). The GI50 (A498) was 21 µM (inactive), the GI50 (UO-31) was 13.7 µM (inactive) and the GI50 (LOX IMVI) was 14.1 µM (inactive). The GI50 (SK-MEL-2) was 36.9 µM (inactive), the GI50 (MDA-N) was 21.3 µM (inactive) and the GI50 (MDA-MB-435) was 73.5 µM (inactive). The GI50 (SR) was > 100 µM (inactive), the GI50 (SK-MEL-28) was 40.6 µM (inactive) and the GI50 (HT-29) was 14.9 µM (inactive). For the same compound, the GI50 (OVCAR-8) was 5.68 µM (inactive), the GI50 (NCI-H460) was 16.5 µM (inactive) and the GI50 (CAKI-1) was 9.84 µM (inactive). For the same compound, the GI50 (MCF7) was 6.34 µM (inactive), the GI50 (M14) was 42 µM (inactive) and the GI50 (SN12C) was 15.1 µM (inactive). The GI50 (RXF 393) was 10.7 µM (inactive), the GI50 (NCI-H226) was 16.7 µM (inactive) and the GI50 (HOP-92) was 3.55 µM (inactive). The GI50 (TK-10) was 12.5 µM (inactive), the GI50 (K562) was > 100 µM (inactive) and the GI50 (SF-268) was 7.41 µM (inactive). The GI50 (MDA-MB-231) was 10 µM (inactive) and the GI50 (PC-3) was 13 µM (inactive).

`CCN1CC2(COC)C(O)CC(OC)C34C5CC6(O)C(OC)C=C(C5C6OC(=O)c5ccc(OC)c(OC)c5)C(C(OC)C23)C14` (stereo unspecified) was tested, and the GI50 (SK-MEL-5) was > 7.5 µM (inactive), the GI50 (UACC-62) was > 7.5 µM (inactive) and the GI50 (CCRF-CEM) was > 7.5 µM (inactive). For the same compound, the GI50 (786-0) was > 7.5 µM (inactive), the GI50 (SF-539) was > 7.5 µM (inactive) and the GI50 (HCT-116) was > 7.5 µM (inactive). The GI50 (ACHN) was > 7.5 µM (inactive), the GI50 (UACC-257) was > 7.5 µM (inactive) and the GI50 (A549) was > 7.5 µM (inactive). The GI50 (Malme-3M) was > 7.5 µM (inactive), the GI50 (COLO 205) was > 7.5 µM (inactive) and the GI50 (EKVX) was > 7.5 µM (inactive). For the same compound, the GI50 (OVCAR-5) was > 7.5 µM (inactive), the GI50 (NCI-H522) was > 7.5 µM (inactive) and the GI50 (KM12) was > 7.5 µM (inactive). The GI50 (T47D) was > 7.5 µM (inactive), the GI50 (SK-OV-3) was > 7.5 µM (inactive) and the GI50 (SNB-75) was 4.51 µM (inactive). The GI50 (IGROV-1) was > 7.5 µM (inactive), the GI50 (SW-620) was > 7.5 µM (inactive) and the GI50 (DU-145) was > 7.5 µM (inactive). For the same compound, the GI50 (HCT-15) was greater than 7.5 µM, the GI50 (U-251) was > 7.5 µM (inactive) and the GI50 (SNB-19) was > 7.5 µM (inactive). The GI50 (HCC 2998) was > 7.5 µM (inactive), the GI50 (OVCAR-4) was > 7.5 µM (inactive) and the GI50 (SF-295) was > 7.5 µM (inactive). The GI50 (HL-60) was > 7.5 µM (inactive), the GI50 (NCI-H23) was > 7.5 µM (inactive) and the GI50 (BT-549) was > 7.5 µM (inactive). The GI50 (Hs-578T) was > 7.5 µM (inactive), the GI50 (NCI/ADR-RES) was > 7.5 µM (inactive) and the GI50 (A498) was > 7.5 µM (inactive). The GI50 (UO-31) was > 7.5 µM (inactive), the GI50 (LOX IMVI) was > 7.5 µM (inactive) and the GI50 (SK-MEL-2) was > 7.5 µM (inactive). The GI50 (MDA-N) was > 7.5 µM (inactive), the GI50 (MDA-MB-435) was > 7.5 µM (inactive) and the GI50 (SR) was > 7.5 µM (inactive). The GI50 (SK-MEL-28) was > 7.5 µM (inactive), the GI50 (HT-29) was > 7.5 µM (inactive) and the GI50 (OVCAR-8) was > 7.5 µM (inactive). For the same compound, the GI50 (NCI-H460) was > 7.5 µM (inactive), the GI50 (CAKI-1) was > 7.5 µM (inactive) and the GI50 (MCF7) was > 7.5 µM (inactive). For the same compound, the GI50 (M14) was > 7.5 µM (inactive), the GI50 (SN12C) was > 7.5 µM (inactive) and the GI50 (NCI-H226) was > 7.5 µM (inactive). The GI50 (HOP-92) was > 7.5 µM (inactive), the GI50 (TK-10) was > 7.5 µM (inactive) and the GI50 (K562) was > 7.5 µM (inactive). The GI50 (SF-268) was > 7.5 µM (inactive), the GI50 (MDA-MB-231) was > 7.5 µM (inactive) and the GI50 (PC-3) was > 7.5 µM (inactive).

With `O=C(O)CCc1nc(-c2ccccc2)c(-c2ccccc2)o1` [OXAPROZIN] the GI50 (SK-MEL-5) was > 100 µM (inactive), the GI50 (UACC-62) was > 100 µM (inactive) and the GI50 (CCRF-CEM) was > 100 µM (inactive). The GI50 (786-0) was > 100 µM (inactive), the GI50 (SF-539) was > 100 µM (inactive) and the GI50 (HOP-62) was > 100 µM (inactive). For the same compound, the GI50 (HCT-116) was > 100 µM (inactive), the GI50 (RPMI-8226) was 74.8 µM (inactive) and the GI50 (ACHN) was > 100 µM (inactive). The GI50 (UACC-257) was > 100 µM (inactive), the GI50 (A549) was > 100 µM (inactive) and the GI50 (Malme-3M) was > 100 µM (inactive). For the same compound, the GI50 (COLO 205) was > 100 µM (inactive), the GI50 (EKVX) was > 100 µM (inactive) and the GI50 (OVCAR-5) was > 100 µM (inactive). The GI50 (NCI-H522) was > 100 µM (inactive), the GI50 (KM12) was > 100 µM (inactive) and the GI50 (T47D) was 74.5 µM (inactive). For the same compound, the GI50 (SK-OV-3) was > 100 µM (inactive), the GI50 (SNB-75) was > 100 µM (inactive) and the GI50 (MOLT-4) was 84.1 µM (inactive). For the same compound, the GI50 (IGROV-1) was > 100 µM (inactive), the GI50 (SW-620) was > 100 µM (inactive) and the GI50 (DU-145) was > 100 µM (inactive). The GI50 (HCT-15) was greater than 100 µM, the GI50 (U-251) was > 100 µM (inactive) and the GI50 (SNB-19) was > 100 µM (inactive). The GI50 (OVCAR-4) was > 100 µM (inactive), the GI50 (SF-295) was > 100 µM (inactive) and the GI50 (HL-60) was > 100 µM (inactive). The GI50 (NCI-H23) was > 100 µM (inactive), the GI50 (BT-549) was > 100 µM (inactive) and the GI50 (OVCAR-3) was > 100 µM (inactive). For the same compound, the GI50 (Hs-578T) was > 100 µM (inactive), the GI50 (NCI/ADR-RES) was > 100 µM (inactive) and the GI50 (A498) was > 100 µM (inactive). For the same compound, the GI50 (LOX IMVI) was > 100 µM (inactive), the GI50 (SK-MEL-2) was > 100 µM (inactive) and the GI50 (MDA-N) was > 100 µM (inactive). The GI50 (MDA-MB-435) was > 100 µM (inactive), the GI50 (SR) was > 100 µM (inactive) and the GI50 (SK-MEL-28) was > 100 µM (inactive). The GI50 (HT-29) was > 100 µM (inactive), the GI50 (OVCAR-8) was > 100 µM (inactive) and the GI50 (NCI-H460) was > 100 µM (inactive). The GI50 (CAKI-1) was > 100 µM (inactive), the GI50 (MCF7) was > 100 µM (inactive) and the GI50 (M14) was > 100 µM (inactive). For the same compound, the GI50 (SN12C) was > 100 µM (inactive), the GI50 (RXF 393) was > 100 µM (inactive) and the GI50 (NCI-H226) was > 100 µM (inactive). For the same compound, the GI50 (HOP-92) was > 100 µM (inactive), the GI50 (TK-10) was > 100 µM (inactive) and the GI50 (K562) was > 100 µM (inactive). For the same compound, the GI50 (MDA-MB-231) was > 100 µM (inactive) and the GI50 (PC-3) was > 100 µM (inactive).
